Reference: patent US9957264B2 (Merck Sharp & Dohme Corp., priority 2013, dated 2018)
pIC50: −log10 of the molar value.

How the values were obtained:
[1] = molecular target: JAK1 (recombinant purified GST-tagged catalytic domain) (Homo sapiens (Human), UniProt P23458); test: Jak Biochemical HTRF Assay (JAK1); conditions: [ATP] 31.8 μM
In short: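 GST-tagged human catalytic domains of JAK1 or JAK2 phosphorylated a biotinylated peptide substrate for 120 min at room temperature after ATP addition. Reaction quenched with EDTA stop buffer containing streptavidin-Dylight 650 and Eu-pY20 antibody; HTRF 665/615 nm ratio normalized to untreated controls, IC50 from 4-parameter fit.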

[2] = molecular target: JAK2 (recombinant purified GST-tagged catalytic domain) (Homo sapiens (Human), UniProt O60674); test: Jak Biochemical HTRF Assay (JAK2); conditions: [ATP] 8.5 μM
Sequence of JAK2 (recombinant purified GST-tagged catalytic domain) (O60674 849-1124): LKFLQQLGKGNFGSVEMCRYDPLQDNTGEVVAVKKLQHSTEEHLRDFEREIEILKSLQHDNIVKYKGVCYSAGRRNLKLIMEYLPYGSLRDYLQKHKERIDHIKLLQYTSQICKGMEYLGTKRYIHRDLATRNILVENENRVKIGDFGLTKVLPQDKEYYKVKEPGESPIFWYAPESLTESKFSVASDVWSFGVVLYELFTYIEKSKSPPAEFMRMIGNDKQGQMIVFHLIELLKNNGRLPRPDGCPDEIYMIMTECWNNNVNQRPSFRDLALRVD

Sequence of JAK1 (recombinant purified GST-tagged catalytic domain) (P23458 875-1153): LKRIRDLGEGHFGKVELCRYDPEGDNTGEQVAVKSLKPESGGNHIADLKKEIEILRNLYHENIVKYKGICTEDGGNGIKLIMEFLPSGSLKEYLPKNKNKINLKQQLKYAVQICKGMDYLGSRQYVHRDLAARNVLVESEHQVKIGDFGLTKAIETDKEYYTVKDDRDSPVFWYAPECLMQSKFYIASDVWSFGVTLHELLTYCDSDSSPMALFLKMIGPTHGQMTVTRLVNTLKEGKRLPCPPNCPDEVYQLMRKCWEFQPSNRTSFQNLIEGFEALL

CN(C)[C@H]1CC[C@](CC#N)(n2nc(Nc3ccc4c(c3)CN(C(C)(C)C)S4(=O)=O)c3c(=O)[nH]ccc32)CC1 [Example 18-37, Trans 2-(1-(3-((2-(tert-butyl)-1,1-dioxido-2,3-dihydrobenzo[d]isothiazol-5-yl)amino)-4-oxo-4,5-dihydro-1H-pyrazolo[4,3-c]pyridin-1-yl)-4-(dimethylamino)cyclohexyl)acetonitrile]
pIC50 [1]: 9.64 | pIC50 [2]: 8.35

CN(C)[C@H]1CC[C@@](CC#N)(n2nc(Nc3ccc4c(c3)CN(C(C)(C)C)S4(=O)=O)c3c(=O)[nH]ccc32)CC1 [Example 18-38, Cis 2-(1-(3-((2-(tert-butyl)-1,1-dioxido-2,3-dihydrobenzo[d]isothiazol-5-yl)amino)-4-oxo-4,5-dihydro-1H-pyrazolo[4,3-c]pyridin-1-yl)-4-(dimethylamino)cyclohexyl)acetonitrile]
pIC50 [1]: 7.79 | pIC50 [2]: 6.68

CN(C)S(=O)(=O)c1ccc(Nc2nn(C3(CC#N)CCC(=O)CC3)c3cc[nH]c(=O)c23)cc1 [Example 18-39, 4-((1-(1-(cyanomethyl)-4-oxocyclohexyl)-4-oxo-4,5-dihydro-1H-pyrazolo[4,3-c]pyridin-3-yl)amino)-N,N-dimethylbenzenesulfonamide]
pIC50 [1]: 8.86 | pIC50 [2]: 8.75

CC(C)(C)NC(=O)[C@@H]1CC[C@@](CC#N)(n2nc(Nc3ccc4c(c3)CN(C(C)(C)C)S4(=O)=O)c3c(=O)[nH]ccc32)CO1 [Example 19-1, (2S,5S)-N-(tert-butyl)-5-(3-((2-(tert-butyl)-1,1-dioxido-2,3-dihydrobenzo[d]isothiazol-5-yl)amino)-4-oxo-4,5-dihydro-1H-pyrazolo[4,3-c]pyridin-1-yl)-5-(cyanomethyl)tetrahydro-2H-pyran-2-carboxamide]
pIC50 [1]: 10.10 | pIC50 [2]: 8.71

CN(C(=O)[C@@H]1CC[C@@](CC#N)(n2nc(Nc3ccc4c(c3)CN(C(C)(C)C)S4(=O)=O)c3c(=O)[nH]ccc32)CO1)C(C)(C)C [Example 19-2, (2S,5S)-N-tert-butyl-5-{3-[(2-tert-butyl-1,1-dioxido-2,3-dihydro-1,2-benzisothiazol-5-yl)amino]-4-oxo-4,5-dihydro-1H-pyrazolo[4,3-c]pyridin-1-yl}-5-(cyanomethyl)-N-methyltetrahydro-2H-pyran-2-carboxamide]
pIC50 [1]: 10.00 | pIC50 [2]: 8.68

CC(C)OC(=O)[C@@H]1CC[C@@](CC#N)(n2nc(Nc3ccc4c(c3)CN(C(C)(C)C)S4(=O)=O)c3c(=O)[nH]ccc32)CO1 [Example 19-3, (2S,5S)-isopropyl 5-(3-((2-(tert-butyl)-1,1-dioxido-2,3-dihydrobenzo[d]isothiazol-5-yl)amino)-4-oxo-4,5-dihydro-1H-pyrazolo[4,3-c]pyridin-1-yl)-5-(cyanomethyl)tetrahydro-2H-pyran-2-carboxylate]
pIC50 [1]: 10.40 | pIC50 [2]: 10.22

Cc1cc(Nc2nn([C@]3(CC#N)CCCOC3)c3cc[nH]c(=O)c23)ccc1C(=O)N1CCCC[C@@H]1C [Example 20-2, 2-((S)-3-(3-((3-methyl-4-((S)-2-methylpiperidine-1-carbonyl)phenyl)amino)-4-oxo-4,5-dihydro-1H-pyrazolo[4,3-c]pyridin-1-yl)tetrahydro-2H-pyran-3-yl)acetonitrile]
pIC50 [1]: 9.37 | pIC50 [2]: 9.21

Cc1cc(Nc2nn([C@]3(CC#N)CCCOC3)c3cc[nH]c(=O)c23)ccc1C(=O)N1CCCC[C@H]1C [Example 20-3, 2-((S)-3-(3-((3-methyl-4-((R)-2-methylpiperidine-1-carbonyl)phenyl)amino)-4-oxo-4,5-dihydro-1H-pyrazolo[4,3-c]pyridin-1-yl)tetrahydro-2H-pyran-3-yl)acetonitrile]
pIC50 [1]: 9.19 | pIC50 [2]: 9.08

Cc1cc(Nc2nn([C@]3(CC#N)CCCOC3)c3cc[nH]c(=O)c23)ccc1C(=O)N1CCC(C)(O)CC1 [Example 20-4, (S)-2-(3-(3-((4-(4-hydroxy-4-methylpiperidine-1-carbonyl)-3-methylphenyl)amino)-4-oxo-4,5-dihydro-1H-pyrazolo[4,3-c]pyridin-1-yl)tetrahydro-2H-pyran-3-yl)acetonitrile]
pIC50 [1]: 9.46 | pIC50 [2]: 9.06

Cc1cc(Nc2nn([C@]3(CC#N)CC[C@@H](C(=O)OC(C)(C)C)OC3)c3cc[nH]c(=O)c23)ccc1C(=O)N1CCOCC1 [Example 20-5, (2S,5S)-tert-butyl 5-(cyanomethyl)-5-(3-((3-methyl-4-(morpholine-4-carbonyl)phenyl)amino)-4-oxo-4,5-dihydro-1H-pyrazolo[4,3-c]pyridin-1-yl)tetrahydro-2H-pyran-2-carboxylate]
pIC50 [1]: 9.89 | pIC50 [2]: 9.72

Cc1cc(Nc2nn([C@]3(CC#N)CC[C@@H](C(=O)OC(C)(C)C)OC3)c3cc[nH]c(=O)c23)ccc1C(=O)N1CCCC1 [Example 20-7, (2S,5S)-tert-butyl 5-(cyanomethyl)-5-(3-((3-methyl-4-(pyrrolidine-1-carbonyl)phenyl)amino)-4-oxo-4,5-dihydro-1H-pyrazolo[4,3-c]pyridin-1-yl)tetrahydro-2H-pyran-2-carboxylate]
pIC50 [1]: 10.05 | pIC50 [2]: 9.44

CCN(CC(F)(F)F)C(=O)c1ccc(Nc2nn([C@]3(CC#N)CC[C@@H](C(=O)OC(C)(C)C)OC3)c3cc[nH]c(=O)c23)cc1C [Example 20-14, (2S,5S)-tert-butyl 5-(cyanomethyl)-5-(3-((4-(ethyl(2,2,2-trifluoroethyl)carbamoyl)-3-methylphenyl)amino)-4-oxo-4,5-dihydro-1H-pyrazolo[4,3-c]pyridin-1-yl)tetrahydro-2H-pyran-2-carboxylate]
pIC50 [1]: 9.55 | pIC50 [2]: 9.29

Cc1cc(Nc2nn([C@]3(CC#N)CC[C@@H](C(=O)OC(C)(C)C)OC3)c3cc[nH]c(=O)c23)ccc1C(=O)N(C)CC(F)(F)F [Example 20-15, (2S,5S)-tert-butyl 5-(cyanomethyl)-5-(3-((3-methyl-4-(methyl(2,2,2-trifluoroethyl)carbamoyl)phenyl)amino)-4-oxo-4,5-dihydro-1H-pyrazolo[4,3-c]pyridin-1-yl)tetrahydro-2H-pyran-2-carboxylate]
pIC50 [1]: 9.72 | pIC50 [2]: 9.29

Cc1cc(Nc2nn([C@]3(CC#N)CC[C@@H](C(=O)OC(C)(C)C)OC3)c3cc[nH]c(=O)c23)ccc1C(=O)N1C[C@@H]2C[C@H]1CO2 [Example 20-16, (2S,5S)-tert-butyl 5-(3-((4-((1S,4S)-2-oxa-5-azabicyclo[2.2.1]heptane-5-carbonyl)-3-methylphenyl)amino)-4-oxo-4,5-dihydro-1H-pyrazolo[4,3-c]pyridin-1-yl)-5-(cyanomethyl)tetrahydro-2H-pyran-2-carboxylate]
pIC50 [1]: 10.00 | pIC50 [2]: 9.82

Cc1nc2ccc(Nc3nn([C@]4(CC#N)CC[C@@H](C(=O)OC(C)(C)C)OC4)c4cc[nH]c(=O)c34)cc2s1 [Example 21-1, (2S,5S)-tert-butyl 5-(cyanomethyl)-5-(3-((2-methylbenzo[d]thiazol-6-yl)amino)-4-oxo-4,5-dihydro-1H-pyrazolo[4,3-c]pyridin-1-yl)tetrahydro-2H-pyran-2-carboxylate]
pIC50 [1]: 10.10 | pIC50 [2]: 9.14

CC1(C)C(=O)Nc2cc(Nc3nn([C@@]4(CC#N)CCCC[C@H]4F)c4cc[nH]c(=O)c34)ccc21 [Example 21-2, [(1R,2R)-1-{3-[(3,3-dimethyl-2-oxo-2,3-dihydro-1H-indol-6-yl)amino]-4-oxo-4,5-dihydro-1H-pyrazolo[4,3-c]pyridin-1-yl}-2-fluorocyclohexyl]acetonitrile]
pIC50 [1]: 10.40 | pIC50 [2]: 10.40

CC1(C)C(=O)Nc2cc(Nc3nn([C@]4(CC#N)CCCOC4)c4cc[nH]c(=O)c34)ccc21 [Example 21-4, [(3S)-3-{3-[(3,3-dimethyl-2-oxo-2,3-dihydro-1H-indol-6-yl)amino]-4-oxo-4,5-dihydro-1H-pyrazolo[4,3-c]pyridin-1-yl}tetrahydro-2H-pyran-3-yl]acetonitrile]
pIC50 [1]: 10.05 | pIC50 [2]: 9.72

CC(C)(C)OC(=O)[C@@H]1CC[C@@](CC#N)(n2nc(Nc3ccnc(F)c3)c3c(=O)[nH]ccc32)CO1 [Example 21-6, (2S,5S)-tert-butyl 5-(cyanomethyl)-5-(3-((2-fluoropyridin-4-yl)amino)-4-oxo-4,5-dihydro-1H-pyrazolo[4,3-c]pyridin-1-yl)tetrahydro-2H-pyran-2-carboxylate]
pIC50 [1]: 9.92 | pIC50 [2]: 8.65

Cc1cc(Nc2nn(C3(CC#N)CCN(C(=O)OC(C)(C)C)CC3)c3cc[nH]c(=O)c23)ccc1C(=O)N1CCC(F)(F)CC1 [Example 21-11, tert-butyl 4-(cyanomethyl)-4-(3-((4-(4,4-difluoropiperidine-1-carbonyl)-3-methylphenyl)amino)-4-oxo-4,5-dihydro-1H-pyrazolo[4,3-c]pyridin-1-yl)piperidine-1-carboxylate]
pIC50 [1]: 9.37 | pIC50 [2]: 9.42

Cc1cc(Nc2nn(C3(CC#N)CCN(C(=O)OC(C)(C)C)CC3)c3cc[nH]c(=O)c23)ccc1C(=O)N1CC2CCC(C1)O2 [Example 21-12, tert-butyl-4-(3-((4-(8-oxa-3-azabicyclo[3.2.1]octane-3-carbonyl)-3-methylphenyl)amino)-4-oxo-4,5-dihydro-1H-pyrazolo[4,3-c]pyridin-1-yl)-4-(cyanomethyl)piperidine-1-carboxylate]
pIC50 [1]: 9.59 | pIC50 [2]: 9.74

Cc1cc(Nc2nn(C3(CC#N)CCN(C(=O)OC(C)(C)C)CC3)c3cc[nH]c(=O)c23)ccc1C(=O)N1C2CCC1COC2 [Example 21-13, tert-butyl 4-(cyanomethyl)-4-{3-[(5-methyl-4-{3-oxa-8-azabicyclo[3.2.1]octan-8-ylcarbonyl}cyclohexa-1,3,5-trien-1-yl)amino]-4-oxo-5H-pyrazolo[4,3-c]pyridin-1-yl}piperidine-1-carboxylate]
pIC50 [1]: 9.57 | pIC50 [2]: 9.70
